Data as given in patent US11021481B2, “Substituted isoindolin-1-ones and 2,3-dihydro-1h-pyrrolo[3,4-c]pyridin-1-ones as HPK1 antagonists” (Nimbus Saturn, Inc., priority 2019, dated 2021).

Biological target: HPK1 (Homo sapiens (Human), UniProt Q92918)
Experiment: HPK1 biochemical enzyme assay (microfluidic mobility shift assay)
Settings: 1.5 nM HPK1, ATP 1 mM final, 30 min preincubation, 60 min at RT, Caliper EZ Reader; read-out: HPK1 1000UMATP caliper IC50
Procedure, shortened: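 Ten-point compound titrations (top 3 μM final) preincubated 30 min with HPK1 and substrate, then reaction started with 1 mM ATP and 1 μM substrate, 5 mM MgCl2. After 60 min at RT, reaction terminated and product measured by microfluidic mobility shift.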

Sequence of HPK1 (Q92918 whole entry): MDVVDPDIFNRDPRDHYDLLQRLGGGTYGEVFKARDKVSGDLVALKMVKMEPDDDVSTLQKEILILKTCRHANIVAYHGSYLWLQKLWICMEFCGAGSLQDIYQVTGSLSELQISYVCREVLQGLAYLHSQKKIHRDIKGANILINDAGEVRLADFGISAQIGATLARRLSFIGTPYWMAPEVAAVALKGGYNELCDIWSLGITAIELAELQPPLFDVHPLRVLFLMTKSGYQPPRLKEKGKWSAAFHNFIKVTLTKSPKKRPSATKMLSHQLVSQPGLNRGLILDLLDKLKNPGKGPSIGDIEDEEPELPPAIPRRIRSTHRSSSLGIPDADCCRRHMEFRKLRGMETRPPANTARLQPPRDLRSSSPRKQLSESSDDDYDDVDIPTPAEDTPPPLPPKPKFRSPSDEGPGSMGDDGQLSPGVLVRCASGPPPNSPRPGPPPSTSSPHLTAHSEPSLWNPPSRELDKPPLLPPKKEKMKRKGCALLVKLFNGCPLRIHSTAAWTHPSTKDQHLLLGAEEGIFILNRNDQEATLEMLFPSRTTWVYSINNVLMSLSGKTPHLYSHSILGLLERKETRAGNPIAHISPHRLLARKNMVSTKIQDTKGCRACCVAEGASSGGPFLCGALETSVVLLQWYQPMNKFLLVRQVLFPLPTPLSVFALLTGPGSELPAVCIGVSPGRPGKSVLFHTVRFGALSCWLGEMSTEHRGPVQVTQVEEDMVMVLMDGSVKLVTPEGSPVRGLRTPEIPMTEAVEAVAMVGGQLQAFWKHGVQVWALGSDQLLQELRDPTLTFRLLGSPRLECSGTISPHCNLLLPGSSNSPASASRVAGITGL

Row | SMILES | IC50 [nM]
1 | Cn1ncc(Nc2ccc(-c3cnc4cc(F)ccn34)c3c2C(=O)NC3)c1C1CCOCC1 [I-396] | > 1000
2 | CN1CCN(CC2(O)CCN(c3ccc(Nc4cnc(-c5ccnc6c5ccn6C)c5c4C(=O)NC5)nc3)CC2)CC1 [I-401, 7-((5-(4-hydroxy-4-((4-methylpiperazin-1-yl)methyl)piper-idin-1-yl)pyridin-2-yl)amino)-4-(1-methyl-1H-pyrrolo[2,3-b]pyridin-4-yl)-2,3-dihydro-1H-pyrrolo[3,4-c]pyridin-1-one] | < 100
3 | Cc1cccn2c(-c3ccc(Nc4ccc(N5CCC(O)(CN6CCN(C)CC6)CC5)cn4)c4c3CNC4=O)cnc12 [I-402, 7-((5-(4-hydroy-4-((4-methylpiperazin-1-yl)methyl)piper-idin-1-yl)pyridin-2-yl)amino)-4-(8-methylimidazo [1,2-a]pyridin-3-yl)isoindolin-1-one] | < 100
4 | CN1CCN(CC2(O)CCN(c3ccc(Nc4ccc(-c5cnc6ccccn56)c5c4C(=O)NC5)nc3)CC2)CC1 [I-403, 7-((5-(4-hydroxy-4-((4-methylpiperazin-1-yl)methyl)pip-eridin-1-yl)pyridin-2-yl)amino)-4-(imidazo[1,2-a]pyridin-3-yl)isoindolin-1-one] | < 100
5 | CN1CCC(O)(c2cccc(Nc3cnc(-c4ccnc5c4ccn5C)c4c3C(=O)NC4)n2)CC1 [I-407, 7-((6-(4-hydroxy-1-methylpiperidin-4-yl)pyridin-2-yl)amino)-4-(1-methyl-1H-pyrrolo[2,3-b]pyridin-4-yl)-2,3-dihydro-1H-pyrrolo[3,4-c]pyridin-1-one] | < 100
6 | Cn1nc(Nc2ccc(-c3cnc4cc(F)ccn34)c3c2C(=O)NC3)cc1C1CCOCC1 [I-408] | < 100

Now from value to compound:

Row | IC50 [nM] | SMILES
7 | < 100 | O=C1NCc2c(-c3cnc4cc(F)ccn34)ccc(Nc3ccc(N4CC(O)CCC45CC5)cn3)c21 (stereo not shown) [I-395, 4-(7-fluoroimidazo [1,2-a]pyridin-3-yl)-7-((5-(6-hydroxy-4-azaspiro[2.5]octan-4-yl)pyridin-2-yl)amino)isoin-dolin-1-one]
8 | < 100 | CC1(O)CCN(c2ccc(Nc3ccc(-c4cnc5cc(F)ccn45)c4c3C(=O)NC4)nc2)CC1 [I-397, 4-(7-fluoroimidazo [1,2-a]pyridin-3-yl)-7-((5-(4-hydroxy-4-methylpiperidin-1-yl)pyridin-2-yl)amino)isoin-dolin-1-one]
9 | < 100 | O=C1NCc2c(-c3cnc4cc(F)ccn34)ccc(Nc3ccc(N4CC[C@@H](O)[C@H](F)C4)cn3)c21 [I-399, 7-((5-((3R,4R)-3-fluoro-4-hydroxy-piperidin-1-yl)pyridin-2-yl)amino)-4-(7-fluoroimidazo [1,2-a]pyridin-3-yl)isoindolin-1-one]
10 | < 100 | O=C1NCc2c(-c3cnc4cc(F)ccn34)ccc(Nc3ccc(N4CC[C@H](O)[C@@H](F)C4)cn3)c21 [I-400, 7-((5-((3S, 4S)-3-fluoro-4-hydroxy-piperidin-1-yl)pyridin-2-yl)amino)-4-(7-fluoroimidazo [1,2-a]pyridin-3-yl)isoindolin-1-one]
11 | < 100 | O=C1NCc2c(-c3cnc4cc(F)ccn34)ccc(Nc3ccc(N4C[C@H]5CC[C@@H](C4)C5O)cn3)c21 (stereo partly drawn) [I-404, 4-(7-fluoroimidazo [1,2-a]pyridin-3-yl)-7-((5-((1R,5S)-8-hydroxy-3-azabicyclo [3,2.1]octan-3-yl)pyridin-2-yl)amino)isoin-dolin-1-one]
12 | < 100 | CN(C)CCN1CCC(c2ccc(Nc3ccc(-c4cnc5cc(F)ccn45)c4c3C(=O)NC4)nc2)CC1=O (stereo not shown) [I-406, 7-((5-(1-(2-(dimethylami-no)ethyl)-2-oxopiperidin-4-yl)pyridin-2-yl)amino)-4-(7-fluoroimidazo [1,2-a]pyridin-3-yl)isoindolin-1-one]
13 | < 100 | CN1CC(c2ccn3c(-c4ccc(Nc5ccc(N6CCC(O)CC6)cn5)c5c4CNC5=O)cnc3c2)C1 [I-411, 7-((5-(4-hydroxy-piperidin-1-yl)pyridin-2-yl)amino)-4-(7-(1-methylazetidin-3-yl)imidazo[1,2-a]pyridin-3-yl)isoindolin-1-one]
